Consider one molecule from patent publication US6855549B1, “Methods and compositions for increasing the infectivity of gene transfer vectors” (The University of Iowa Research Foundation, priority 1998, dated 2005).

Series [1] deals with polarized human bronchial epithelial cells. Description: Transepithelial resistance of polarized bronchial cultures after hypotonic EGTA. The class given is cell-based. The conditions noted are these: 3 mM EGTA-H2O, 10 min, 37° C., immediate. As for the experimental part:
For the UV irradiation studies, Millicell inserts were put transiently into empty 100-mm tissue culture plates (apical side up) and exposed to 25 J/m^2 of UV light (254 nm). After irradiation, the Millicell inserts were quickly returned to plates containing Ultraser G culture medium on the basolateral side. Infections with rAAV were performed immediately following UV irradiation by application of 5×10^9 rAAV particles in 100 μl to either the apical or basolateral side of the support membrane as described above. Keratinocyte growth factor (KGF) treatment was performed at a final concentration of 100 ng/ml by addition to the basolateral culture medium for two sequential 24-hr incubations prior to AAV infection. Transient disruption of tight junctions was achieved by treating polarized cells with 3 mM EGTA in water for 10 min. After hypotonic EGTA treatment, cultures were washed twice with culture medium and infected with 5×10^9 rAAV particles in […] on either the apical or basolateral side of support membranes.
The transepithelial resistance of primary airway cultures was monitored with an ohm meter (EVOM; World Precision Instruments, Sarasota Fla.), as previously described (Wang et al., 1998). […] Electrodes were placed in both the mucosal and serosal compartments of the Millicell inserts and the resistance across the epithelia was recorded.

Series [2] deals with differentiated human airway epithelia. Type of series: cell-based. The following applies: VSV-G pseudotyped HIV-based lentivirus.
The test system of series [3] is lung. Description: Lung morphology (H & E) 1 wk after EGTA/water instillation. Type of series: in vivo, rat. As to the method: Preliminary studies were performed in rats to test the feasibility of using hypotonic solutions with EGTA to increase transepithelial permeability in vivo. 3 wk old rats were tracheotomized and a small caliber PE catheter inserted into the left lobe of the lung. 100 μl of 3 or 12 mM EGTA in water or PBS was mixed with […] fluorescent beads (a marker for viral particles) and instilled into the lungs. One hour later the animals were sacrificed and lung, tissue sections examined under fluorescence microscopy to determine if the fluorescent beads penetrated the epithelial layer. In the PBS control animal, fluorescent particles were only noted in the airway lunen. […] It also was asked if animals treated with EGTA/H2O developed changes in lung morphology. Animals received PBS or 12, 60, or 120 mM EGTA/water into the left lobe of the lung and 1 wk later were sacrificed and H & E stained lung tissues examined.

Take `O=C(O)CN(CCOCCOCCN(CC(=O)O)CC(=O)O)CC(=O)O` [EGTA]: the “decrease in transepithelial resistance” value in series [1] is given as “greater than 10 fold”. The “gene transfer, apical surface of quiescent cells with EGTA/hypotonic buffer” value in series [2] was “gene transfer was enhanced”. Further, the lung morphology result in series [3] (120 mM EGTA) is “thickening of the interstitial space was noted”; in series [3] (12 or 60 mM EGTA/water), “morphology similar to the control”.
